From US10377719B2, “Trypanosomes inhibitors” (Hoffmann-La Roche Inc., priority 2015, dated 2019) come the findings set out here.

The first test has as its system Trypanosoma brucei rhodesiense STIB900. The test is described as follows: Activity against Trypanosoma brucei rhodesiense STIB900 (Alamar Blue assay). The format is cell-based. To be noted: Trypanosoma brucei, 70 h, bloodstream forms of T. b. rhodesiense STIB 900, 70 h incubation. The procedure: Activity Against Trypanosoma brucei Rhodesiense STIB900
This stock was isolated in 1982 from a human patient in Tanzania and after several mouse passages cloned and adapted to axenic culture conditions (Baltz, T., D. Baltz, C. Giroud, and J. Crockett. 1985, Cultivation in a semi-defined medium of animal infective forms of Trypanosoma brucei, T. equiperdum, T. evansi, T. rhodesiense and T. gambiense. EMBO Journal 4:1273-1277). Minimum Essential Medium (50 μl) supplemented with 25 mM HEPES, 1 g/l additional glucose, 1% MEM non-essential amino acids (100×), 0.2 mM 2-mercaptoethanol, 1 mM Na-pyruvate and 15% heat inactivated horse serum was added to each well of a 96-well microtiter plate. Serial drug dilutions of eleven 3-fold dilution steps covering a range from […] were prepared. Then 4×10^3 bloodstream forms of T. b. rhodesiense STIB 900 in 50 μl was added to each well and the plate incubated at 37° C. under a 5% CO2 atmosphere for 70 h. 10 μl Alamar Blue (resazurin, 12.5 mg in 100 ml double-distilled water) was then added to each well and incubation continued for a further 2-4 h (Räz, B., M. Iten, Y. Grether-Buhler, R. Kaminsky, and R. Brun. 1997, The Alamar Blue assay to determine drug sensitivity of African trypanosomes (T.b. rhodesiense and T.b. gambiense) in vitro. Acta Trop 68:139-47). Then the plates were read with a Spectramax Gemini XS microplate fluorometer (Molecular Devices Cooperation, Sunnyvale, Calif., USA) using an excitation wave length of 536 nm and an emission wave length of 588 nm. The IC50 values were calculated by linear regression (Huber, W. Koella, J. C. 1993, A comparison of the three methods of estimating EC50 in studies of drug resistance of malaria parasites. Acta Trop. 55, 257-261) from the sigmoidal dose inhibition curves using SoftmaxPro software (Molecular Devices Cooperation, Sunnyvale, Calif., USA). Melarsoprol is used as control.
For orientation: Alamar Blue is a resazurin reagent that responds to reducing activity.
A word on the IC50: it is the concentration needed to halve the response being measured. Compound `N#CC1(NC(=O)[C@H](Cc2ccc(OC(F)(F)F)c(Cl)c2)NC(=O)c2cc(C(F)(F)F)nn2CC(F)F)CC1` [Example 1, (S)—N-(3-(3-chloro-4-(trifluoromethoxy)phenyl)-1-(1-cyanocyclopropylamino)-1-oxopropan-2-yl)-1-(2,2-difluoroethyl)-3-(trifluoromethyl)-1H-pyrazole-5-carboxamide] gave an IC50 of 0.003 µM.
On the same count and under the same terms, in the case of `Cn1nc(C(F)(F)F)cc1C(=O)N[C@@H](Cc1ccc(OC(F)(F)F)c(Cl)c1)C(=O)NC1(C#N)CC1` [Example 2, (S)—N-(3-(3-chloro-4-(trifluoromethoxy)phenyl)-1-(1-cyanocyclopropylamino)-1-oxopropan-2-yl)-1-methyl-3-(trifluoromethyl)-1H-pyrazole-5-carboxamide] it was 0.005 µM; in that of `Cc1cc(C(=O)N[C@@H](Cc2ccc(OC(F)(F)F)c(Cl)c2)C(=O)NC2(C#N)CC2)n(C)n1` [Example 3, (S)—N-(3-(3-chloro-4-(trifluoromethoxy)phenyl)-1-(1-cyanocyclopropylamino)-1-oxopropan-2-yl)-1,3-dimethyl-1H-pyrazole-5-carboxamide], 0.071 µM.
`Cn1nc(C2CC2)cc1C(=O)N[C@@H](Cc1ccc(OC(F)(F)F)c(Cl)c1)C(=O)NC1(C#N)CC1` [Example 4, (S)—N-(3-(3-chloro-4-(trifluoromethoxy)phenyl)-1-(1-cyanocyclopropylamino)-1-oxopropan-2-yl)-3-cyclopropyl-1-methyl-1H-pyrazole-5-carboxamide] yielded an IC50 of 0.005 µM.
Consider `Cn1nc(C(C)(C)C)cc1C(=O)N[C@@H](Cc1ccc(OC(F)(F)F)c(Cl)c1)C(=O)NC1(C#N)CC1` [Example 5, (S)-3-tert-butyl-N-(3-(3-chloro-4-(trifluoromethoxy)phenyl)-1-(1-cyanocyclopropylamino)-1-oxopropan-2-yl)-1-methyl-1H-pyrazole-5-carboxamide], for which half-maximal inhibition (IC50) was put at 4.43 µM.
Compound `N#CC1(NC(=O)[C@H](Cc2ccc(OC(F)(F)F)c(Cl)c2)NC(=O)c2ccn(-c3ccc(F)cc3)n2)CC1` [Example 6, (S)—N-(3-(3-chloro-4-(trifluoromethoxy)phenyl)-1-(1-cyanocyclopropylamino)-1-oxopropan-2-yl)-1-(4-fluorophenyl)-1H-pyrazole-3-carboxamide] returned a 50% inhibitory concentration (IC50) of 0.05 µM.
Consider `Cn1nc(-c2ccccc2)cc1C(=O)N[C@@H](Cc1ccc(OC(F)(F)F)c(Cl)c1)C(=O)NC1(C#N)CC1` [Example 7, (S)—N-(3-(3-chloro-4-(trifluoromethoxy)phenyl)-1-(1-cyanocyclopropylamino)-1-oxopropan-2-yl)-1-methyl-3-phenyl-1H-pyrazole-5-carboxamide], for which the IC50 amounted to 0.02 µM.
The same measure, in the same setting: under `Cc1oc(-c2ccc(Cl)cc2)nc1C(=O)N[C@@H](Cc1ccc(OC(F)(F)F)c(Cl)c1)C(=O)NC1(C#N)CC1` [Example 8, (S)—N-(3-(3-chloro-4-(trifluoromethoxy)phenyl)-1-(1-cyanocyclopropylamino)-1-oxopropan-2-yl)-2-(4-chlorophenyl)-5-methyloxazole-4-carboxamide] stands 0.068 µM; under `N#CC1(NC(=O)[C@H](Cc2ccc(OC(F)(F)F)c(Cl)c2)NC(=O)c2cnn(-c3ccc(F)cc3)n2)CC1` [Example 9, (S)—N-(3-(3-chloro-4-(trifluoromethoxy)phenyl)-1-(1-cyanocyclopropylamino)-1-oxopropan-2-yl)-2-(4-fluorophenyl)-2H-1,2,3-triazole-4-carboxamide], 0.009 µM; under `N#CC1(NC(=O)[C@H](Cc2ccc(OC(F)(F)F)c(Cl)c2)NC(=O)c2cc(-c3ccccc3Cl)n[nH]2)CC1` [Example 10, (S)—N-(3-(3-chloro-4-(trifluoromethoxy)phenyl)-1-(1-cyanocyclopropylamino)-1-oxopropan-2-yl)-3-(2-chlorophenyl)-1H-pyrazole-5-carboxamide], 0.013 µM.
Still for that read-out and setting: in the case of `N#CC1(NC(=O)[C@H](Cc2ccc(OC(F)(F)F)c(Cl)c2)NC(=O)c2cc(-c3ccc(F)cc3)n[nH]2)CC1` [Example 11, (S)—N-(3-(3-chloro-4-(trifluoromethoxy)phenyl)-1-(1-cyanocyclopropylamino)-1-oxopropan-2-yl)-3-(4-fluorophenyl)-1H-pyrazole-5-carboxamide] it was 0.278 µM; in that of `COc1ccc(-c2cc(C(=O)N[C@@H](Cc3ccc(OC(F)(F)F)c(Cl)c3)C(=O)NC3(C#N)CC3)[nH]n2)cc1` [Example 12, (S)—N-(3-(3-chloro-4-(trifluoromethoxy)phenyl)-1-(1-cyanocyclopropylamino)-1-oxopropan-2-yl)-3-(4-methoxyphenyl)-1H-pyrazole-5-carboxamide], 0.162 µM.
Still for that read-out and setting: under `N#CC1(NC(=O)[C@H](Cc2ccc(OC(F)(F)F)c(Cl)c2)NC(=O)c2cc(-c3ccccc3)no2)CC1` [Example 13, (S)—N-(3-(3-chloro-4-(trifluoromethoxy)phenyl)-1-(1-cyanocyclopropylamino)-1-oxopropan-2-yl)-3-phenylisoxazole-5-carboxamide] stands 0.003 µM; under `Cc1nn(-c2ccccc2)nc1C(=O)N[C@@H](Cc1ccc(OC(F)(F)F)c(Cl)c1)C(=O)NC1(C#N)CC1` [Example 14, (S)—N-(3-(3-chloro-4-(trifluoromethoxy)phenyl)-1-(1-cyanocyclopropylamino)-1-oxopropan-2-yl)-5-methyl-2-phenyl-2H-1,2,3-triazole-4-carboxamide], 0.145 µM; under `N#CC1(NC(=O)[C@H](Cc2ccc(OC(F)(F)F)c(Cl)c2)NC(=O)c2noc(-c3cccc(F)c3)n2)CC1` [Example 15, (S)—N-(3-(3-chloro-4-(trifluoromethoxy)phenyl)-1-(1-cyanocyclopropylamino)-1-oxopropan-2-yl)-5-(3-fluorophenyl)-1,2,4-oxadiazole-3-carboxamide], 0.005 µM.
Regarding `N#CC1(NC(=O)[C@H](Cc2ccc(OC(F)(F)F)c(Cl)c2)NC(=O)c2cnn(-c3ccccc3)n2)CC1` [Example 16, (S)—N-(3-(3-chloro-4-(trifluoromethoxy)phenyl)-1-(1-cyanocyclopropylamino)-1-oxopropan-2-yl)-2-phenyl-2H-1,2,3-triazole-4-carboxamide], the half-inhibitory concentration (IC50) was found to be 0.005 µM. In other words, the single-digit nanomolar range.
Still for that read-out and setting: in the case of `Cn1nc(-c2cccc(Cl)c2)cc1C(=O)N[C@@H](Cc1ccc(OC(F)(F)F)c(Cl)c1)C(=O)NC1(C#N)CC1` [Example 17, (S)—N-(3-(3-chloro-4-(trifluoromethoxy)phenyl)-1-(1-cyanocyclopropylamino)-1-oxopropan-2-yl)-3-(3-chlorophenyl)-1-methyl-1H-pyrazole-5-carboxamide] it was 0.413 µM; in that of `N#CC1(NC(=O)[C@H](Cc2ccc(OC(F)(F)F)c(Cl)c2)NC(=O)c2noc(-c3cccc(Cl)c3)n2)CC1` [Example 18, (S)—N-(3-(3-chloro-4-(trifluoromethoxy)phenyl)-1-(1-cyanocyclopropylamino)-1-oxopropan-2-yl)-5-(3-chlorophenyl)-1,2,4-oxadiazole-3-carboxamide], 0.007 µM.
Same read-out and setting: under `N#CC1(NC(=O)[C@H](Cc2ccc(OC(F)(F)F)c(Cl)c2)NC(c2nnc(-c3ccc(Br)cc3)o2)C(F)(F)F)CC1` (stereo partly drawn) [Example 19, (2S)-2-[[1-[5-(4-bromophenyl)-1,3,4-oxadiazol-2-yl]-2,2,2-trifluoroethyl]amino]-3-[3-chloro-4-(trifluoromethoxy)phenyl]-N-(1-cyanocyclopropyl)propanamide] stands 10.1 µM; under `N#CC1(NC(=O)[C@H](Cc2ccc(OC(F)(F)F)c(Cl)c2)NC(c2nnc(-c3ccccc3)o2)C(F)(F)F)CC1` (stereo partly drawn) [Example 22, (2S)-3-(3-chloro-4-(trifluoromethoxy)phenyl)-N-(1-cyanocyclopropyl)-2-(2,2,2-trifluoro-1-(5-phenyl-1,3,4-oxadiazol-2-yl)ethylamino)propanamide], 16.6 µM; under `CSc1ccc(-n2ncc(C(=O)N[C@@H](Cc3ccc(OC(F)(F)F)c(Cl)c3)C(=O)NC3(C#N)CC3)n2)cc1` [Example 23, N-[(2S)-3-[3-chloro-4-(trifluoromethoxy)phenyl]-1-[(1-cyanocyclopropyl)amino]-1-oxopropan-2-yl]-2-(4-methylsulfanylphenyl)triazole-4-carboxamide], 0.067 µM.
The same measure, in the same setting: under `N#CC1(NC(=O)[C@H](Cc2ccc(OC(F)(F)F)c(Cl)c2)NC(=O)c2cnn(-c3ccc(Cl)cc3)n2)CC1` [Example 24, 2-(4-chlorophenyl)-N-[(2S)-3-[3-chloro-4-(trifluoromethoxy)phenyl]-1-[(1-cyanocyclopropyl)amino]-1-oxopropan-2-yl]triazole-4-carboxamide] stands 0.022 µM.

Still in this test, the particulars now being: bloodstream forms of T. b. rhodesiense STIB 900, 70 h incubation.
`N#CC1(NC(=O)[C@H](Cc2ccc(OC(F)(F)F)c(Cl)c2)NC(c2nnc(-c3ccc(Br)cc3)o2)C(F)(F)F)CC1` (stereo partly drawn) [Example 20, (2S)-2-(1-(5-(4-bromophenyl)-1,3,4-oxadiazol-2-yl)-2,2,2-trifluoroethylamino)-3-(3-chloro-4-(trifluoromethoxy)phenyl)-N-(1-cyanocyclopropyl)propanamide] gave an IC50 of 16.1 µM.
